Test system: Fusarium graminearum
Assay type: cell-based
Set-up: key: + indicates a 1- to 5-fold improvement in activity compared to a reference defensin protein; ++ indicates a >5- to 10-fold improvement; +++ indicates a >10-fold improvement; “0” indicates no activity detected
Details: not given

| Substance | Activity (1): antifungal activity of the NP against Fusarium graminearium |
| --- | --- |
| QKLCERPSGTWSGVCMNSNACKNQCIRLEGARHGSCNYVFPAHKCICYFPC (Defensin like) [L2-53] | 0 |

Same assay, conditions: Table 2B (Dm-AMP1 based libraries); improvement compared to reference defensin protein (Rs-AFP2 for Table 2B [sic])

| Substance | Activity (1): antifungal activity of the NP against Fusarium graminearium |
| --- | --- |
| NLCERASKTWTGNCGNTKHCDTQCKNWESAKHGACHVRSGKHKCFCYFNC (Defensin like) [L3-28] | ++ (++ indicates a >5- to 10-fold improvement) |
| NLCERASKTWTGNCGNTKHCDTQCRNWEGARHGACHVRNGKWKCFCYFNC (Defensin like) [L10-71] | ++ (++ indicates a >5- to 10-fold improvement) |
| ELCERASKTWTGNCGNTKHCDNQCRSWESAAHGACHKRSGKWKCFCYFNC (Defensin like) [L3-87] | ++ (++ indicates a >5- to 10-fold improvement) |
| NLCEKASKTWTGNCGNTKHCDNQCKNWESAAHGACHKRNGKWKCFCYFNC (Defensin like) [L3-79] | ++ (++ indicates a >5- to 10-fold improvement) |
| NLCERASKTWTGNCGNTKHCDNQCRSWEGAKHGACHKRSGKWKCFCYFNC (Defensin like) [L10-77] | ++ (++ indicates a >5- to 10-fold improvement) |
| NLCERASKTWTGNCGNTKHCDTQCKSWEGAKHGACHVRSGKHKCFCYFNC (Defensin like) [L5-36] | + (+ indicates a 1- to 5-fold improvement in activity compared to a reference defensin protein) |
| NLCERASKTWTGNCGNTKHCDTQCRSWEGAKHGACHVRNGKWKCFCYFNC (Defensin like) [L6-62] | + (+ indicates a 1- to 5-fold improvement in activity compared to a reference defensin protein) |
| NLCERASKTWTGNCGNTKHCDNQCKNWEGAAHGACHKRSGKWKCFCYFNC (Defensin like) [L10-80] | ++ (++ indicates a >5- to 10-fold improvement) |
| NLCEKASKTWTGNCGNTKHCDNQCRSWEGAKHGACMKRSGKWKCFCYFNC [L10-76] | ++ (++ indicates a >5- to 10-fold improvement) |
| ELCERASLTWTGNCGNTKHCDTQCKSWEGAKHGACHKRSGKWKCFCYFNC (Defensin like) [L3-96] | + (+ indicates a 1- to 5-fold improvement in activity compared to a reference defensin protein) |
| NLCERASKTWTGNCGNTKHCDNQCRNWEGAKHGACHVRNGKHKCFCYFNC (Defensin like) [L6-35] | ++ (++ indicates a >5- to 10-fold improvement) |
| NLCERASKTWTGNCGNTKHCDNQCRNWESAAHGACHKRSGKWKCFCYFNC (Defensin like) [L3-98] | ++ (++ indicates a >5- to 10-fold improvement) |
| NLCERASKTWTGNCGNTKHCDTKCRSWESAKHGACHKRNGKWKCFCYFNC (Defensin like) [L3-46] | ++ (++ indicates a >5- to 10-fold improvement) |
| NLCERASKTWAGNCGNTKHCDNQCRSWEGAKHGACHVRNGKWKCFCYFNC (Defensin like) [L10-33] | + (+ indicates a 1- to 5-fold improvement in activity compared to a reference defensin protein) |
| NLCERASKTWTGNCGNTKHCDTQCKNWEGAKHGACHVRNGKWKCFCYFNC (Defensin like) [L6-77] | ++ (++ indicates a >5- to 10-fold improvement) |
| NLCERASKTWTGNCGNTKHCDNQCRNWEGAAHGACHKRNGKWKCFCYFNC (Defensin like) [L6-45] | ++ (++ indicates a >5- to 10-fold improvement) |
| NLCERASKTWTGNCGNTKHCDNQCRNWEGAKHGACHVRSGKWKCFCYFNC (Defensin like) [L10-79] | ++ (++ indicates a >5- to 10-fold improvement) |
| NLCERASKTWTGNCGNTKHCDNQCKNWEGAKHGACHVRNGKWKCFCYFNC (Defensin like) [L6-03] | +++ (+++ indicates a >10-fold improvement) |
| NLCERASKTWTGNCGNTKHCDTQCKSWEGAKHGACHVRNGKWKCFCYFNC (Defensin like) [L6-52] | + (+ indicates a 1- to 5-fold improvement in activity compared to a reference defensin protein) |
| NLCERASKTWTGNCGNTKHCDNQCRNWEGAKHGACHKRNGKWKCFCYFNC (Defensin like) [L9-12] | +++ (+++ indicates a >10-fold improvement) |
| NLCERASKTWTGNCGNTKHCDNQCKNWEGAKHGACHVRNGKHKCFCYFNC (Defensin like) [L6-08] | +++ (+++ indicates a >10-fold improvement) |
| NLCERASKTWTGNCGNTKHCDTQCRNWEGAKHGACHKRSGKWKCFCYFNC (Defensin like) [L6-33] | ++ (++ indicates a >5- to 10-fold improvement) |
| NLCERASKTWSSNCGNTKHCDTQCKNWEGAKHGACHVRNGKWKCFCYFNC (Defensin like) [L10-60] | ++ (++ indicates a >5- to 10-fold improvement) |
| NLCERASKTWTGNCGNTKHCDNQCKNWEGAKHGACHKRSGKWKCFCYFNC (Defensin like) [L10-25] | + (+ indicates a 1- to 5-fold improvement in activity compared to a reference defensin protein) |
| NLCERASKTWTGNCGNTKHCDNQCKSWEGAKHGACHVRNGKWKCFCYFNC (Defensin like) [L10-64] | ++ (++ indicates a >5- to 10-fold improvement) |

Same assay, conditions: Table 2C (mixed diversity library); improvement compared to reference defensin protein DmAMP

| Substance | Activity (1): antifungal activity of the NP against Fusarium graminearium |
| --- | --- |
| DGVKLCEKPSQTWTGHCGNTKHCDKQCKNWEGAKHGACHKRNGKWKCFCYFNC (Defensin like) [L7-178] | ++ (++ indicates a >5- to 10-fold improvement) |
| DGVKLCERASKTWTGNCGNTKHCDNQCKSWEGAKHGACHVRNGKHKCFCYFNC (Defensin like) [L7-76] | ++ (++ indicates a >5- to 10-fold improvement) |
| ---NLCERASKTWSGHCGNTKHCDNQCRNWEGAKHGACHKRNGKWKCFCYFNC (Defensin like) [L7-11] | ++ (++ indicates a >5- to 10-fold improvement) |
| DGVKLCERASKTWSGHCGNTKHCDKQCKNWEKAKHGACHKRSGKWKCFCYFNC (Defensin like) [L7-219] | + (+ indicates a 1- to 5-fold improvement in activity compared to a reference defensin protein) |
| DGVKLCERPSQTWTGHCGNTKHCDKQCRNWEGAAHGACHKRSGKWKCFCYFNC (Defensin like) [L7-83] | ++ (++ indicates a >5- to 10-fold improvement) |
| DGVKLCEKASQTWTGNCGNTKHCDNQCKNWEKAKHGACHKRSGKWKCFCYFNC (Defensin like) [L7-42] | + (+ indicates a 1- to 5-fold improvement in activity compared to a reference defensin protein) |
| DGVKLCEKPSKTWSGHCGNTKHCDKQCKNWEKAKHGACHKRNGKWKCFCYFNC (Defensin like) [L7-113] | + (+ indicates a 1- to 5-fold improvement in activity compared to a reference defensin protein) |
| DGVKLCERASKTWTGNCGNTKHCDKQCKNWEGAKHGACHKRNGKWKCFCYFNC (Defensin like) [L7-107] | + (+ indicates a 1- to 5-fold improvement in activity compared to a reference defensin protein) |
| DGVKLCERASQTWTGHCGNTKHCDKQCKSWEKAKHGACHVRNGKWKCFCYFNC (Defensin like) [L7-15] | ++ (++ indicates a >5- to 10-fold improvement) |
| DGVKLCERPSQTWTGNCGNTKHCDKQCKSWEGAKHGACHKRNGKWKCFCYFNC (Defensin like) [L7-99] | + (+ indicates a 1- to 5-fold improvement in activity compared to a reference defensin protein) |
| --QKLCEKASQTWTGHCGNTKHCDNQCRNWEKAAHGACHVRNGKWKCFCYFNC (Defensin like) [L7-19] | + (+ indicates a 1- to 5-fold improvement in activity compared to a reference defensin protein) |
| ---NLCERPSKTWTGHCGNTKHCDKQCKSWEGAKHGACHVRSGKWKCFCYFNC (Defensin like) [L7-26] | ++ (++ indicates a >5- to 10-fold improvement) |
| DGVKLCERASQTWSGHCGNTKHCDKQCKNWEKAAHGACHVRSGKWKCFCYFNC (Defensin like) [L7-14] | ++ (++ indicates a >5- to 10-fold improvement) |
| --QKLCERPSQTWTGHCGNTKHCDKQCKNWEGAKHGACHVRNGKWKCFCYFNC (Defensin like) [L7-89] | + (+ indicates a 1- to 5-fold improvement in activity compared to a reference defensin protein) |
| DGVKLCERPSQTWSGNCGNTKHCDKQCRNWEKAKHGACHKRNGKWKCFCYFNC (Defensin like) [L7-123] | + (+ indicates a 1- to 5-fold improvement in activity compared to a reference defensin protein) |
| DGVKLCEKPSQTWSHCGNTKHCDNQCKNWEGAAHGACHKRSGKWKCFCYFNC (Defensin like) [L7-231] | ++ (++ indicates a >5- to 10-fold improvement) |
| --QKLCERASKTWTGHCGNTKHCDKQCKNWEKAKHGACHVRNGKWKCFCYFNC (Defensin like) [L7-34] | + (+ indicates a 1- to 5-fold improvement in activity compared to a reference defensin protein) |
| DGVKLCEKPSQTWTGNCGNTKHCDKQCRNWEKAKHGACHKRNGKWKCFCYFNC (Defensin like) [L7-46] | + (+ indicates a 1- to 5-fold improvement in activity compared to a reference defensin protein) |
| --QKLCERPSQTWTGHCGNTKHCDTQCKSWEGAKHGACHKRNGKWKCFCYFNC (Defensin like) [L7-44] | + (+ indicates a 1- to 5-fold improvement in activity compared to a reference defensin protein) |

Source: patent publication US7785828B1 (priority 2003, dated 2010)
